Converted amounts (≈) assume the structure as drawn. “Also recorded” adds a separate entry of the source.
What was measured:
[1] = target: HDAC4 (Homo sapiens (Human), UniProt P56524); experiment: HDACs 1-11 enzymatic inhibition by BPS Bioscience
Experimental: (§4) HDAC assay was performed according to standard Protocols (Fluorgenic HDACs 1-11 assay kit, BPS Bioscience™). […] After 0.5 h, assay developer was added to the samples and the absorbance was read at fluorogenic wavelength. The relative inhibition to HDACs 1, 2, 3, 4, 5, 6, 7, 8, 9, and 11 activities was determined in each sample. […] All of the compounds were dissolved in DMSO. The serial dilution of the compounds was first performed in 100% DMSO with the highest concentration at 1 mM. Each intermediate compound dilution (in 100% DMSO) would then get directly diluted 10× fold into assay buffer for an intermediate dilution of 10% DMSO in HDAC assay buffer and 5 μl of the dilution was added to a 50 μl reaction so that the final concentration of DMSO is 1% in all of the reactions. The enzymatic reactions for the HDAC enzymes were conducted in duplicate at 37° C. for 30 minutes in a 50 μl mixture containing HDAC assay buffer, 5 μg BSA, an HDAC substrate, a HDAC enzyme and a test compound. After enzymatic reactions, 50 μl of 2×HDAC Developer was added to each well for the HDAC enzymes and the plate was incubated at room temperature for an additional 15 minutes. Fluorescence intensity was measured at an excitation of 360 nm and an emission of 460 nm using a Tecan Infinite M1000 microplate reader. HDAC activity assays were performed in duplicate at each concentration. The fluorescent intensity data were analyzed using the computer software, Graphpad Prism. In the absence of the compound, the fluorescent intensity (Ft) in each data set was defined as 100% activity. In the absence of HDAC, the fluorescent intensity (Fb) in each data set was defined as 0% activity. The percent activity in the presence of each compound was calculated according to the following equation: % activity=(F−Fb)/(Ft−Fb), where F=the fluorescent intensity in the presence of the compound. […] The IC50 value was determined by the concentration causing a half-maximal percent activity.

[2] = target: HDAC7 (Homo sapiens (Human), UniProt Q8WUI4); experiment: HDACs 1-11 enzymatic inhibition by BPS Bioscience
Experimental: as §4

[3] = target: HDAC9 (Homo sapiens (Human), UniProt Q9UKV0); experiment: HDACs 1-11 enzymatic inhibition by BPS Bioscience
Experimental: as §4

[4] = tested on: MDA-MB-231 cells; experiment: Cell apoptosis (sub-G1) by PI flow cytometry; type: cell-based, human; settings: MDA-MB-231, 6.25 μM, 72 h
Experimental: (§1) A PI/RNase staining assay (BD Bioscience™) was performed to reveal the presence of cell cycle arrest and apoptotic cells after treatment with GNTbm compounds, Chidamide and Entinostat. […] After treatment cells were harvested, fixed with 80% ethanol for 24 h, washed with 1×PBS and stained with PI/RNase for 15 min at room temperature. The cells were then analyzed using Flow Cytometer within 1 h.

[5] = tested on: M10 cells; experiment: Cell apoptosis (sub-G1) by PI flow cytometry; type: cell-based, human; settings: M10, 12.5 μM, 72 h
Experimental: as §1

[6] = tested on: SW48 cells; experiment: Cell apoptosis (sub-G1) by PI flow cytometry; type: cell-based, human; settings: SW48, 6.25 μM, 72 h
Experimental: as §1

[7] = tested on: MDA-MB-231 cells; experiment: Cell cycle arrest by PI flow cytometry; type: cell-based, human; settings: MDA-MB-231, 3.125 μM, 72 h
Experimental: as §1

[8] = tested on: M10 cells; experiment: Cell cycle arrest by PI flow cytometry; type: cell-based, human; settings: M10, 12.5 μM, 72 h
Experimental: as §1

[9] = tested on: SW48 cells; experiment: Cell cycle arrest by PI flow cytometry; type: cell-based, human; settings: SW48, 3.125 μM, 72 h
Experimental: as §1

[10] = tested on: SW48; experiment: In vitro cytotoxicity MTT assay; type: cell-based, human; settings: Homo sapiens, SW48, 72 h, IC50 ± SD
Method in brief: (§2)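 Viability is determined by MTT after 72 h of treatment, using 2.4×10^4 seeded cells for SW48, NCI-N87 and MDA-MB-453 and 6×10^3 for MDA-MB-231.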

[11] = tested on: MDA-MB-231; experiment: In vitro cytotoxicity MTT assay; type: cell-based, human; settings: Homo sapiens, MDA-MB-231, 72 h, IC50 ± SD
Method in brief: as §2

[12] = tested on: M10; experiment: In vitro cytotoxicity MTT assay; type: cell-based, human; settings: Homo sapiens, M10, 72 h, IC50 ± SD
Method in brief: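 Cells were seeded in 96-well plates at 6×10^3 (MDA-MB-231) or 2.4×10^4 (MDA-MB-453, NCI-N87, SW48). Compound exposure lasted 72 h, after which viability was measured by MTT.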

[13] = tested on: MDA-MB-453; experiment: In vitro cytotoxicity MTT assay; type: cell-based, human; settings: Homo sapiens, MDA-MB-453, 72 h, IC50 ± SD
Method in brief: as §2

[14] = tested on: NCI-N87; experiment: In vitro cytotoxicity MTT assay; type: cell-based; settings: Homo sapiens, 72 h, IC50 ± SD
Method in brief: as §2

[15] = tested on: SK-BR-3; experiment: In vitro cytotoxicity MTT assay; type: cell-based; settings: Homo sapiens, 72 h, IC50 ± SD
Method in brief: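 Plated 96-well (MDA-MB-231 6×10^3; others 2.4×10^4); treated 72 h; MTT.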

[16] = target: T1, HDAC3 (Homo sapiens (Human), UniProt O15379); experiment: HDAC3 enzymatic kinetic assay; type: biochemical; settings: 2 μM; 20 min, 40 min and 60 min
T1 sequence (O15379 whole entry): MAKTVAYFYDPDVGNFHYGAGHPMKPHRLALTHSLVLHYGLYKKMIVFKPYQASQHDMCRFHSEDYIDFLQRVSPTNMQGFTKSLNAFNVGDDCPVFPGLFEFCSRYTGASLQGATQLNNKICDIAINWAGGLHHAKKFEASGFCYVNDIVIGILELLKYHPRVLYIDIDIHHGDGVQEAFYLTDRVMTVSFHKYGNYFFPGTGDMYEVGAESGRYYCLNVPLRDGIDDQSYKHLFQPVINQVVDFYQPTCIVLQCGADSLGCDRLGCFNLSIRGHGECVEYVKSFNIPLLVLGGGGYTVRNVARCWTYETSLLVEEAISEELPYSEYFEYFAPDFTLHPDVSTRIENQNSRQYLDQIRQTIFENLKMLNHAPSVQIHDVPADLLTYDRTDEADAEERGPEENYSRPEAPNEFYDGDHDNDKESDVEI
T1 sequence (Q9Y618 395-489 partner): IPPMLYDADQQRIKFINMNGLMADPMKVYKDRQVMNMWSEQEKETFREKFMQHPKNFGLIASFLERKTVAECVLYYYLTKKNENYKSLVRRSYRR
Experimental: (§3) HDAC3 enzymatic kinetic assay was performed according to standard Protocols (Fluorgenic HDAC3 assay kit, BPS Bioscience™). […] After incubation, assay developer was added to the samples and the absorbance was read at fluorogenic wavelength. The relative inhibition to HDAC3 activity in each sample was determined.

[17] = target: HDAC11 (Homo sapiens (Human), UniProt Q96DB2); experiment: HDACs 1-11 enzymatic inhibition by BPS Bioscience
HDAC11, sequence (Q96DB2 whole entry): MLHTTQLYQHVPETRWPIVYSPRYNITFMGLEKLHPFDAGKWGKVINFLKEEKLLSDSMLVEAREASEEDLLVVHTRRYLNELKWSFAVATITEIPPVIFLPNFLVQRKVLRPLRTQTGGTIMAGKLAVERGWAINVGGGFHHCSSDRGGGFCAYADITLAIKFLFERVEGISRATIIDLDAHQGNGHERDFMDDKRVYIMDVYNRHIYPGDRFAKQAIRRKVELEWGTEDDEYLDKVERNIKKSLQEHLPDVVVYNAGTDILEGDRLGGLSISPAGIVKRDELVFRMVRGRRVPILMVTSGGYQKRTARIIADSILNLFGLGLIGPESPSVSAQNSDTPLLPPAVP
Experimental: HDAC assay was performed according to standard Protocols (Fluorgenic HDACs 1-11 assay kit, BPS Bioscience™). […] After 0.5 h, assay developer was added to the samples and the absorbance was read at fluorogenic wavelength. The relative inhibition to HDACs 1, 2, 3, 4, 5, 6, 7, 8, 9, and 11 activities was determined in each sample. […] All of the compounds were dissolved in DMSO. The serial dilution of the compounds was first performed in 100% DMSO with the highest concentration at 1 mM. Each intermediate compound dilution (in 100% DMSO) would then get directly diluted 10× fold into assay buffer for an intermediate dilution of 10% DMSO in HDAC assay buffer and 5 μl of the dilution was added to a 50 μl reaction so that the final concentration of DMSO is 1% in all of the reactions. The enzymatic reactions for the HDAC enzymes were conducted in duplicate at 37° C. for 30 minutes in a 50 μl mixture containing HDAC assay buffer, 5 μg BSA, an HDAC substrate, a HDAC enzyme and a test compound. After enzymatic reactions, 50 μl of 2×HDAC Developer was added to each well for the HDAC enzymes and the plate was incubated at room temperature for an additional 15 minutes. Fluorescence intensity was measured at an excitation of 360 nm and an emission of 460 nm using a Tecan Infinite M1000 microplate reader. HDAC activity assays were performed in duplicate at each concentration. The fluorescent intensity data were analyzed using the computer software, Graphpad Prism. In the absence of the compound, the fluorescent intensity (Ft) in each data set was defined as 100% activity. In the absence of HDAC, the fluorescent intensity (Fb) in each data set was defined as 0% activity. The percent activity in the presence of each compound was calculated according to the following equation: % activity=(F−Fb)/(Ft−Fb), where F=the fluorescent intensity in the presence of the compound. The values of % activity versus a series of compound concentrations were then plotted using non-linear regression analysis of Sigmoidal dose-response curve generated with the equation Y=B+(T−B)/1+10((Log EC50−X)×Hill Slope), where Y=percent activity, B=minimum percent activity, T=maximum percent activity, X=logarithm of compound and Hill Slope=slope factor or Hill coefficient. The IC50 value was determined by the concentration causing a half-maximal percent activity.

[18] = target: T2, HDAC1 (Homo sapiens (Human), UniProt Q13547); experiment: HDACs 1, 2, and 3 enzymatic inhibition (fluorogenic kit, 1 h); type: biochemical; settings: 37° C.
T2 sequence (Q13547 whole entry): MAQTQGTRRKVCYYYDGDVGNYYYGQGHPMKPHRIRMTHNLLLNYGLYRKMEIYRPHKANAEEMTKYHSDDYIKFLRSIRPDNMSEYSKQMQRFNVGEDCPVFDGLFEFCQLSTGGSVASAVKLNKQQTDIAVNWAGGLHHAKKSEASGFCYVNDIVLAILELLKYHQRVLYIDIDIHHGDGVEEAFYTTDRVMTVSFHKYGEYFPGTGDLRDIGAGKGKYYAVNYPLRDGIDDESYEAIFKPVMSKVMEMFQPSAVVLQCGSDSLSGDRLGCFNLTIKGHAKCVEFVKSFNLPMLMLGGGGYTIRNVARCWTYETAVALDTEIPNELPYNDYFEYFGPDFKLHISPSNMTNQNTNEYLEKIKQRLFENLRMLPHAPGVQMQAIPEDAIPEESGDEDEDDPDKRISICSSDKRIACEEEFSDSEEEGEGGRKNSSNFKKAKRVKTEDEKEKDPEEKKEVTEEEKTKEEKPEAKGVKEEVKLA
Experimental: as §3, with “HDACs” for “HDAC3 enzymatic kinetic”, “HDACs 1, 2, and 3” for “HDAC3”, “1 h,” for “incubation,”, “HDACs 1, 2, and 3 activities” for “HDAC3 activity”

[19] = target: T1, HDAC3; experiment: as above; type: biochemical; settings: 37° C.
Experimental: as §3, with “HDACs” for “HDAC3 enzymatic kinetic”, “HDACs 1, 2, and 3” for “HDAC3”, “1 h,” for “incubation,”, “HDACs 1, 2, and 3 activities” for “HDAC3 activity”

[20] = target: HDAC2 (Homo sapiens (Human), UniProt Q92769); experiment: as above; type: biochemical; settings: 37° C.
HDAC2, sequence (Q92769 whole entry): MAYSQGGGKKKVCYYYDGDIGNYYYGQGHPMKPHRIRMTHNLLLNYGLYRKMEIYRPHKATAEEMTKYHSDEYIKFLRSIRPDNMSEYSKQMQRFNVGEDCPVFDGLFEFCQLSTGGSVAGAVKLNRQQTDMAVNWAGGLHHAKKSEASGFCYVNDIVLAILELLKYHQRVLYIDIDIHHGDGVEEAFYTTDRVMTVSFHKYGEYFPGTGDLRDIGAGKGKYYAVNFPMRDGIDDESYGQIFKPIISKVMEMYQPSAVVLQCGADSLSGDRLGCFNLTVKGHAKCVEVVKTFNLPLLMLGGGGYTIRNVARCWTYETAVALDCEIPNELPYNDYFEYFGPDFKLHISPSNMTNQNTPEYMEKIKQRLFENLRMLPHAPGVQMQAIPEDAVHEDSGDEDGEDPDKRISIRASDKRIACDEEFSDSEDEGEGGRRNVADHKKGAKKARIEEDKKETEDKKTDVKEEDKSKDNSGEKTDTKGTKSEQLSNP
Experimental: as §3, with “HDACs” for “HDAC3 enzymatic kinetic”, “HDACs 1, 2, and 3” for “HDAC3”, “1 h,” for “incubation,”, “HDACs 1, 2, and 3 activities” for “HDAC3 activity”

[21] = target: T2, HDAC1; experiment: HDACs 1-11 enzymatic inhibition by BPS Bioscience
Experimental: HDAC assay was performed according to standard Protocols (Fluorgenic HDACs 1-11 assay kit, BPS Bioscience™). […] After 0.5 h, assay developer was added to the samples and the absorbance was read at fluorogenic wavelength. The relative inhibition to HDACs 1, 2, 3, 4, 5, 6, 7, 8, 9, and 11 activities was determined in each sample. […] All of the compounds were dissolved in DMSO. The serial dilution of the compounds was first performed in 100% DMSO with the highest concentration at 1 mM. Each intermediate compound dilution (in 100% DMSO) would then get directly diluted 10× fold into assay buffer for an intermediate dilution of 10% DMSO in HDAC assay buffer and 5 μl of the dilution was added to a 50 μl reaction so that the final concentration of DMSO is 1% in all of the reactions. […] Fluorescence intensity was measured at an excitation of 360 nm and an emission of 460 nm using a Tecan Infinite M1000 microplate reader. […] The fluorescent intensity data were analyzed using the computer software, Graphpad Prism. […] The percent activity in the presence of each compound was calculated according to the following equation: % activity=(F−Fb)/(Ft−Fb), where F=the fluorescent intensity in the presence of the compound. […] The IC50 value was determined by the concentration causing a half-maximal percent activity.

[22] = Saturation solubility; type: physicochemical; settings: water, thermodynamic from solid, ddH2O, 25° C., mean ± SD, BDL: Below detection limit
Experimental: Samples of 5 mg of compounds were added to 5 ml volumetric flasks containing ddH2O and shaken at 100 rpm in an incubator at 25° C. for 90 minutes. The resulting suspension was filtered through a 0.22 μm filter. The concentrations of compounds were determined spectrophotometrically at 256 nm. The saturation solubility of each sample was determined in triplicates and the mean value and standard deviation were reported.

HDAC9, sequence (Q9UKV0 whole entry): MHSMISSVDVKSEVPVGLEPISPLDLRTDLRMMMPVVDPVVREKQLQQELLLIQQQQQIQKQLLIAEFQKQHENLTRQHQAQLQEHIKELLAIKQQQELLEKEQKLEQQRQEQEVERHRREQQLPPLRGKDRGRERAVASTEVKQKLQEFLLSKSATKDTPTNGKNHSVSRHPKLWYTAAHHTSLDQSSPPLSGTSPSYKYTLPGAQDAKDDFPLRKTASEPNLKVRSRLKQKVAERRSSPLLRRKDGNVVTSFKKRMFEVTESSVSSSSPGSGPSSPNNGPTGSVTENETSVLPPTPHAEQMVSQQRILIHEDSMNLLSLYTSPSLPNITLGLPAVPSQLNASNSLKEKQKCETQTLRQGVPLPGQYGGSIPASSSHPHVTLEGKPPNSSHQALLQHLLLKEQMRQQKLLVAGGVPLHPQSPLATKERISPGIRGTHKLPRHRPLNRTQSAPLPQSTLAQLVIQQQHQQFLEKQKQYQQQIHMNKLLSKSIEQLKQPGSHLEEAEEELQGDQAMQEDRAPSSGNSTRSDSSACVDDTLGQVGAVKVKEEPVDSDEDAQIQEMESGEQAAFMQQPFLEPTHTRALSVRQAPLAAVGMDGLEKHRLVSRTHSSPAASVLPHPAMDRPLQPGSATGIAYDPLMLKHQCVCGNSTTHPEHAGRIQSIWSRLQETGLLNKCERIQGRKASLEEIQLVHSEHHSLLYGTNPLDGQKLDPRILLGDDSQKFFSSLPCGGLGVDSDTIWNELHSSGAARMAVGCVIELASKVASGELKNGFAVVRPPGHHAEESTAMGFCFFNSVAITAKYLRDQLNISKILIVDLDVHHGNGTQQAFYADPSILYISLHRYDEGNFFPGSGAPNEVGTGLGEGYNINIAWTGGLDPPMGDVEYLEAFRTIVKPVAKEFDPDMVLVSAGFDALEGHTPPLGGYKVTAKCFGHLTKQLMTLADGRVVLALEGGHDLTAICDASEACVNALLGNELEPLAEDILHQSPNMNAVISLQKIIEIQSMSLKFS
HDAC4, sequence (P56524 whole entry): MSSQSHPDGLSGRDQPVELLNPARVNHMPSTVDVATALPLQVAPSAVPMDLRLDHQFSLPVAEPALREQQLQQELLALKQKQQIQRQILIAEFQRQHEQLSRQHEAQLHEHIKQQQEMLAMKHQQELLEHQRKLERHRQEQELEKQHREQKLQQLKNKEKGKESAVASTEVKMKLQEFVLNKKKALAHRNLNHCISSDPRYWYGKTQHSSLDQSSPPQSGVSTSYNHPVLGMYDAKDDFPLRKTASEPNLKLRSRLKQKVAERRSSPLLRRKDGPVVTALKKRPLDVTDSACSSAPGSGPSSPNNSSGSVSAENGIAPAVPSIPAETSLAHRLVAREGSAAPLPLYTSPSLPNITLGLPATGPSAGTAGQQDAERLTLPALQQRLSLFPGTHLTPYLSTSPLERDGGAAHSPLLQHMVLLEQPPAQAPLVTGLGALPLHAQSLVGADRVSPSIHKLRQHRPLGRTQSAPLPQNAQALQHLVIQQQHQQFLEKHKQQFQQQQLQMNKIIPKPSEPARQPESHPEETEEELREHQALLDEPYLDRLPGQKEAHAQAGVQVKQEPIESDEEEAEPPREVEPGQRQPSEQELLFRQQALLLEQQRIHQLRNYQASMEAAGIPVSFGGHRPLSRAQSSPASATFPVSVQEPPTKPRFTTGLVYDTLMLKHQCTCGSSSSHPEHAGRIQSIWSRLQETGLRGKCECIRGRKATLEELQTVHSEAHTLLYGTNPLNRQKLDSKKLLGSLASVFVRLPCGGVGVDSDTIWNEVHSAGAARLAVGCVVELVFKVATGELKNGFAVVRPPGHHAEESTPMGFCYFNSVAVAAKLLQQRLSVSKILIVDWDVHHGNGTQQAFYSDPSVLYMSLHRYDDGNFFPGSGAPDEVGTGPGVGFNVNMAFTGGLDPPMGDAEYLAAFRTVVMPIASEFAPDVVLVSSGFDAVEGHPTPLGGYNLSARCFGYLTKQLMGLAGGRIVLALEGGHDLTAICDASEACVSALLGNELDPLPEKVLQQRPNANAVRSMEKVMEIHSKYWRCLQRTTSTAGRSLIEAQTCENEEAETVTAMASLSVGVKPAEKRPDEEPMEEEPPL
HDAC7, sequence (Q8WUI4 whole entry): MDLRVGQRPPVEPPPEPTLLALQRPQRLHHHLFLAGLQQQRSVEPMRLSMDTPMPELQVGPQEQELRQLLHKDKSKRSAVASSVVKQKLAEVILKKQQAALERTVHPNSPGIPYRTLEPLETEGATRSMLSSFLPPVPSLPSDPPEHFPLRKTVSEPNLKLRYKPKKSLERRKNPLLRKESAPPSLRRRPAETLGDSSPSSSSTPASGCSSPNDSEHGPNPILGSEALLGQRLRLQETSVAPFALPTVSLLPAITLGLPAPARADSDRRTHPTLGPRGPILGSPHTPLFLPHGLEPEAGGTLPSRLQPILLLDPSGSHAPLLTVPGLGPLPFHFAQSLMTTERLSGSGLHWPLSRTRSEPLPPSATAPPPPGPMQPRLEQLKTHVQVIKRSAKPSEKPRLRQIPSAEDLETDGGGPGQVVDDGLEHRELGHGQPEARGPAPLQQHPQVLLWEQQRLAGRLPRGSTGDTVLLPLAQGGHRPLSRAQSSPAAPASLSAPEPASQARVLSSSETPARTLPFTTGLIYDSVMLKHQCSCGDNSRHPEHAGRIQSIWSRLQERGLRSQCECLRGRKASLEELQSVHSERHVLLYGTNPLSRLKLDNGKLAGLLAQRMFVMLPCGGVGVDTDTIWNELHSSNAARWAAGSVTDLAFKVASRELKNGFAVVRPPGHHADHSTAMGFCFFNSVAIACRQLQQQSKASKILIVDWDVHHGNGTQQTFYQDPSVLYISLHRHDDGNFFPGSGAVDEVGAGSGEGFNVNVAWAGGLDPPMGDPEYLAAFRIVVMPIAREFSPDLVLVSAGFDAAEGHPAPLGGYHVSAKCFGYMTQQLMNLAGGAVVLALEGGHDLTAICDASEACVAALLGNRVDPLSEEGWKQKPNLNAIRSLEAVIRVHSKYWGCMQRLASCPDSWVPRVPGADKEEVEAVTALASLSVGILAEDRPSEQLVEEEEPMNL

For `Cc1ccc(/C=C/CC(=O)Nc2ccc(C(=O)Nc3ccc(F)cc3N)nc2)cn1` [GNTbm-02, 5-((E)-4-(6-methylpyridin-3-yl)but-3-enamido)-N-(2-amino-4-fluorophenyl)pyridine-2-carboxamide], the IC50 [1] was > 10000 nM, the “HDAC4 Inhibition at 10 μM” value ([1]; 10 μM) was “not inhibited; also recorded: No Inhibition at 10 μM” and the IC50 [2] was > 10000 nM. For the same molecule, the “HDAC7 Inhibition at 10 μM” value ([2]; 10 μM) was “not inhibited; also recorded: No Inhibition at 10 μM”, the IC50 [3] was > 10000 nM and the “HDAC9 Inhibition at 10 μM” value ([3]; 10 μM) was “not inhibited; also recorded: No Inhibition at 10 μM”. The “Induction of apoptosis (sub-G1 phase)” value [4] was “significantly induced apoptosis”, the “Induction of apoptosis (sub-G1 phase)” value [5] was “significantly induced apoptosis in M10 cells” and the “Induction of apoptosis (sub-G1 phase)” value [6] was “significantly induced apoptosis”. The Cell cycle arrest [7] was “significantly induced cell cycle arrest in G0/G1 phase”, the Cell cycle arrest [8] was “significantly induced cell cycle arrest of M10 cells in the G2/M phase” and the “Cells in G2/M phase” value [8] was 16.2%. The Cell cycle arrest [9] was “significantly induced cell cycle arrest in G0/G1 phase”, the “Cells in G0/G1 phase” value [9] was 76.9% and the IC50 [10] was 2510 ± 110 nM. For the same molecule, the IC50 [11] was 13500 ± 1780 nM, the IC50 [12] was 4310 ± 160 nM and the IC50 [13] was 1690 ± 8 nM. The IC50 [14] was 4010 ± 490 nM, the IC50 [15] was 2000 ± 15 nM and the “Inhibition of HDAC 3 enzyme activities (kinetics)” value [16] was “stronger inhibition of HDAC 3 enzyme activities than Entinostat; also recorded: stronger inhibition of HDAC 3 enzyme activities than GNTbm-01”. For the same molecule, the IC50 [17] was > 10000 nM, the “HDAC11 Inhibition at 10 μM” value ([17]; 10 μM) was “not inhibited; also recorded: No Inhibition at 10 μM” and the IC50 [18] was 520 ± 20 nM. For the same molecule, the IC50 [19] was 670 ± 5 nM, the IC50 [20] was 550 ± 60 nM and the IC50 [21] was 390 nM. The solubility at 90 min [22] was 33.6 µg/mL (≈ 82.9 µM).

From patent publication US11672788B2, “Histone deacetylase inhibitors for immunomodulation in tumor microenvironment” (GREAT NOVEL THERAPEUTICS BIOTECH & MEDICALS CORPORATION, priority 2020, dated 2023)
